For the experiment, the system named is BDF1 mice, P388 leukemia ip, median survival T/C. In words: NCI In Vivo Anticancer Drug Screen. Data for tumor model P388 Leukemia (intraperitoneal) in B6D2F1 (BDF1) mice. The following applies: endpoint: median survival time, higher = longer survival. The essentials: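 Survival ratio, drug arm over vehicle arm, in mice with a transplanted tumour.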
The mark [1] stands for this setting: dose: 1.0 mg/kg/injection, schedule: Q01DX009 (ip), vehicle: Klucel (hydroxypropylcellulose) (HPC).
Where [2] appears, read: dose: 50.0 mg/kg/injection, schedule: Q01DX009 (ip), vehicle: saline.
Where [3] appears, read: dose: 100.0 mg/kg/injection, schedule: Q01DX009 (ip), vehicle: saline.
Where [4] appears, read: dose: 200.0 mg/kg/injection, schedule: Q01DX009 (ip), vehicle: saline.
The mark [5] stands for this setting: dose: 50.0 mg/kg/injection, schedule: Q01DX009 (ip), vehicle: saline with Tween-80.
The mark [6] stands for this setting: dose: 100.0 mg/kg/injection, schedule: Q01DX009 (ip), vehicle: saline with Tween-80.

Consider 11 molecules from PubChem BioAssay AID328 (DTP/NCI, 2004).

Several values for one entry are separate records, joined by “and”; a condition that tells them apart may be missing. Identical values can stand only once. Inconclusive results and toxic doses are left out.

As to `CC1=CC2C(O)(CC(CO)=CC3C4C(C)(C)C4(OC(=O)c4ccccc4)C(OC(=O)c4ccccc4)C(C)C32O)C1=O` (stereo unspecified), the T/C by setting is: (dose: 0.03 mg/kg/injection, schedule: Q01DX009 (ip), vehicle: Klucel (hydroxypropylcellulose) (HPC)) 95 % of control; (dose: 0.03 mg/kg/injection, schedule: Q01DX009 (ip), vehicle: saline + alcohol) 93 % of control; (dose: 0.06 mg/kg/injection, schedule: Q01DX009 (ip), vehicle: Klucel (hydroxypropylcellulose) (HPC)) 99 % of control; (dose: 0.06 mg/kg/injection, schedule: Q01DX009 (ip), vehicle: saline + alcohol) 94 % of control; (dose: 0.12 mg/kg/injection, schedule: Q01DX009 (ip), vehicle: Klucel (hydroxypropylcellulose) (HPC)) 99 % of control; (dose: 0.12 mg/kg/injection, schedule: Q01DX009 (ip), vehicle: saline + alcohol) 112 % of control. Further, the T/C (dose: 0.25 mg/kg/injection, schedule: Q01DX009 (ip), vehicle: Klucel (hydroxypropylcellulose) (HPC)) was 94 % of control; the T/C (dose: 0.25 mg/kg/injection, schedule: Q01DX009 (ip), vehicle: saline + alcohol) is 119 % of control; the T/C (dose: 0.5 mg/kg/injection, schedule: Q01DX009 (ip), vehicle: Klucel (hydroxypropylcellulose) (HPC)) was 89 % of control; the T/C (dose: 0.5 mg/kg/injection, schedule: Q01DX009 (ip), vehicle: saline + alcohol) is 119 % of control; the T/C under setting [1] is 110 % of control; the T/C (dose: 1.0 mg/kg/injection, schedule: Q01DX009 (ip), vehicle: saline + alcohol) is 92 % of control. Also, the T/C (dose: 3.1 micrograms/kg/injection, schedule: Q01DX009 (ip), vehicle: gum acacia) is 116 % of control; the T/C (dose: 3.1 micrograms/kg/injection, schedule: Q01DX009 (ip), vehicle: saline + alcohol) was 172 % of control; the T/C (dose: 3.1 micrograms/kg/injection, schedule: Q01DX009 (ip), vehicle: saline with Tween-80) is 88 % of control and 118 % of control; the T/C (dose: 6.2 micrograms/kg/injection, schedule: Q01DX009 (ip), vehicle: gum acacia) is 110 % of control; the T/C (dose: 6.2 micrograms/kg/injection, schedule: Q01DX009 (ip), vehicle: saline + alcohol) was 118 % of control; the T/C (dose: 6.2 micrograms/kg/injection, schedule: Q01DX009 (ip), vehicle: saline with Tween-80) was 119 % of control. In addition, the T/C runs as follows: (dose: 12.5 micrograms/kg/injection, schedule: Q01DX009 (ip), vehicle: gum acacia) 107 % of control; (dose: 12.5 micrograms/kg/injection, schedule: Q01DX009 (ip), vehicle: saline + alcohol) 110 % of control; (dose: 12.5 micrograms/kg/injection, schedule: Q01DX009 (ip), vehicle: saline with Tween-80) 98 % of control and 121 % of control; (dose: 25.0 micrograms/kg/injection, schedule: Q01DX009 (ip), vehicle: gum acacia) 108 % of control; (dose: 25.0 micrograms/kg/injection, schedule: Q01DX009 (ip), vehicle: saline + alcohol) 110 % of control; (dose: 25.0 micrograms/kg/injection, schedule: Q01DX009 (ip), vehicle: saline with Tween-80) 93 % of control. Besides, the T/C was 110 % of control (dose: 50.0 micrograms/kg/injection, schedule: Q01DX009 (ip), vehicle: gum acacia); 116 % of control (dose: 50.0 micrograms/kg/injection, schedule: Q01DX009 (ip), vehicle: saline + alcohol); 105 % of control (dose: 100.0 micrograms/kg/injection, schedule: Q01DX009 (ip), vehicle: gum acacia); 110 % of control (dose: 100.0 micrograms/kg/injection, schedule: Q01DX009 (ip), vehicle: saline + alcohol); 104 % of control (dose: 100.0 micrograms/kg/injection, schedule: Q01DX009 (ip), vehicle: saline with Tween-80); 110 % of control (dose: 200.0 micrograms/kg/injection, schedule: Q01DX009 (ip), vehicle: gum acacia). The T/C is, setting by setting: (dose: 200.0 micrograms/kg/injection, schedule: Q01DX009 (ip), vehicle: saline + alcohol) 150 % of control; (dose: 200.0 micrograms/kg/injection, schedule: Q01DX009 (ip), vehicle: saline with Tween-80) 107 % of control and 116 % of control; (dose: 400.0 micrograms/kg/injection, schedule: Q01DX009 (ip), vehicle: saline + alcohol) 116 % of control; (dose: 800.0 micrograms/kg/injection, schedule: Q01DX009 (ip), vehicle: gum acacia) 96 % of control; (dose: 800.0 micrograms/kg/injection, schedule: Q01DX009 (ip), vehicle: saline + alcohol) 96 % of control; (dose: 800.0 micrograms/kg/injection, schedule: Q01DX009 (ip), vehicle: saline with Tween-80) 98 % of control and 110 % of control.

For `CC(C)(C)OC(=O)NC(CCC(=O)O)(Cc1ccccc1)C(=O)NC(CCC(=O)OCc1ccccc1)C(=O)OCc1ccccc1` (stereo unspecified), the T/C runs as follows: (dose: 100.0 mg/kg/injection, schedule: Q01DX005 (ip), vehicle: saline with Tween-80) 86 % of control; (dose: 200.0 mg/kg/injection, schedule: Q01DX005 (ip), vehicle: saline with Tween-80) 86 % of control.

As to `CCCCCCCCCCCC(=O)CCCC`, the T/C (dose: 100.0 mg/kg/injection, schedule: Q01DX009 (ip), vehicle: other) is 110 % of control and the T/C (dose: 200.0 mg/kg/injection, schedule: Q01DX009 (ip), vehicle: other) was 90 % of control.

Turning to `N#CC1=C(N)CCCC1`, the T/C was 97 % of control under setting [2], 99 % of control under setting [3] and 102 % of control under setting [4].

For `CC(C)(C)c1cc([N+](=O)[O-])cc(C(C)(C)C)c1O`, the T/C reads like this: (dose: 25.0 mg/kg/injection, schedule: Q01DX009 (ip), vehicle: Klucel (hydroxypropylcellulose) (HPC)) 90 % of control and 100 % of control; (dose: 25.0 mg/kg/injection, schedule: Q04DX003 (ip), vehicle: Klucel (hydroxypropylcellulose) (HPC)) 100 % of control; (dose: 50.0 mg/kg/injection, schedule: Q01DX009 (ip), vehicle: Klucel (hydroxypropylcellulose) (HPC)) 96 % of control and 109 % of control; (dose: 50.0 mg/kg/injection, schedule: Q04DX003 (ip), vehicle: Klucel (hydroxypropylcellulose) (HPC)) 86 % of control and 88 % of control; (dose: 100.0 mg/kg/injection, schedule: Q01DX009 (ip), vehicle: Klucel (hydroxypropylcellulose) (HPC)) 95 % of control and 96 % of control; (dose: 100.0 mg/kg/injection, schedule: Q04DX003 (ip), vehicle: Klucel (hydroxypropylcellulose) (HPC)) 86 % of control and 88 % of control. Moreover, the T/C (dose: 200.0 mg/kg/injection, schedule: Q04DX003 (ip), vehicle: Klucel (hydroxypropylcellulose) (HPC)) is 92 % of control.

As to `O=C1NC(=O)C(Cc2ccccc2)(c2ccccc2)N1` (stereo unspecified), the T/C (dose: 75.0 mg/kg/injection, schedule: Q01DX009 (ip), vehicle: saline with Tween-80) is 97 % of control and the T/C (dose: 150.0 mg/kg/injection, schedule: Q01DX009 (ip), vehicle: saline with Tween-80) is 100 % of control.

On to `CCc1oc(=O)c(Cc2c(OC(C)=O)cc(OC(C)=O)c3c2OC(c2ccccc2)CC3=O)c(OC(C)=O)c1C` (stereo unspecified), for which the T/C under setting [1] was 99 % of control; the T/C (dose: 2.0 mg/kg/injection, schedule: Q01DX009 (ip), vehicle: Klucel (hydroxypropylcellulose) (HPC)) was 92 % of control; the T/C (dose: 4.0 mg/kg/injection, schedule: Q01DX009 (ip), vehicle: Klucel (hydroxypropylcellulose) (HPC)) is 93 % of control; the T/C (dose: 8.0 mg/kg/injection, schedule: Q01DX009 (ip), vehicle: Klucel (hydroxypropylcellulose) (HPC)) was 92 % of control.

`CCn1c2ccccc2c2cc(NC(=O)Nc3ccc([N+](=O)[O-])cc3C)ccc21`: the T/C under setting [5] was 100 % of control; the T/C under setting [6] is 91 % of control; the T/C (dose: 200.0 mg/kg/injection, schedule: Q01DX009 (ip), vehicle: saline with Tween-80) is 91 % of control.

With `O/N=C/C=N/O.O/N=C/C=N/O.[Cl][Rh][Cl]`, the T/C was 99 % of control (dose: 25.0 mg/kg/injection, schedule: Q01DX009 (ip), vehicle: saline); 94 % of control under setting [2]; 108 % of control under setting [3]; 100 % of control under setting [4]; 91 % of control (dose: 400.0 mg/kg/injection, schedule: Q01DX009 (ip), vehicle: saline).

Consider `O=C(/C=C/c1ccc(OCc2ccccc2)cc1)c1ccccc1Cl`, for which the T/C is, setting by setting: under setting [5], 96 % of control; under setting [6], 96 % of control.

With `O=S(=O)(O)N(O)c1ccccc1`, the T/C was 105 % of control (dose: 25.0 mg/kg/injection, schedule: Q01DX001 (ip), vehicle: saline with Tween-80); 102 % of control (dose: 50.0 mg/kg/injection, schedule: Q01DX001 (ip), vehicle: saline with Tween-80); 100 % of control (dose: 100.0 mg/kg/injection, schedule: Q01DX001 (ip), vehicle: saline with Tween-80); 99 % of control and 105 % of control (dose: 200.0 mg/kg/injection, schedule: Q01DX001 (ip), vehicle: saline with Tween-80); 101 % of control (dose: 400.0 mg/kg/injection, schedule: Q01DX001 (ip), vehicle: saline with Tween-80).
